Experimental data: the supplement of paper PMC11451515

Tested on: SEM cells
Test: cell viability relative to DMSO control; higher = less cytotoxic
Conditions: 48 h
Summary of the method: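 Before seeding, each leukemia line was adapted for at least four passages in each medium. NOMO1 or SEM cells (500 cells/well) and P12-Ichikawa cells (1000 cells/well) went into 1536-well plates at 5 μl, then received library compounds in DMSO by pin dosing across 11 threefold concentrations, 47 μM to 0.79 nM. Readout was CellTiter-Glo One luminescence after 48 h at 37°C, and viability is given as a per-plate percentage of DMSO wells, with cell-free wells as background.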

[1] = HPLM + 10% dialyzed FBS, 0.000781 µM
[2] = HPLM + 10% dialyzed FBS, 0.00234 µM
[3] = HPLM + 10% dialyzed FBS, 0.00702 µM
[4] = HPLM + 10% dialyzed FBS, 0.0211 µM
[5] = HPLM + 10% dialyzed FBS, 0.0632 µM
[6] = HPLM + 10% dialyzed FBS, 0.19 µM
[7] = HPLM + 10% dialyzed FBS, 0.569 µM
[8] = HPLM + 10% dialyzed FBS, 1.71 µM
[9] = HPLM + 10% dialyzed FBS, 5.12 µM
[10] = HPLM + 10% dialyzed FBS, 15.4 µM
[11] = HPLM + 10% dialyzed FBS, 46.1 µM
[12] = RPMI 5 mM glucose + 10% FBS, 0.000781 µM
[13] = RPMI 5 mM glucose + 10% FBS, 0.00234 µM
[14] = RPMI 5 mM glucose + 10% FBS, 0.00702 µM
[15] = RPMI 5 mM glucose + 10% FBS, 0.0211 µM
[16] = RPMI 5 mM glucose + 10% FBS, 0.0632 µM
[17] = RPMI 5 mM glucose + 10% FBS, 0.19 µM
[18] = RPMI 5 mM glucose + 10% FBS, 0.569 µM
[19] = RPMI 5 mM glucose + 10% FBS, 1.71 µM
[20] = RPMI 5 mM glucose + 10% FBS, 5.12 µM
[21] = RPMI 5 mM glucose + 10% FBS, 15.4 µM
[22] = RPMI 5 mM glucose + 10% FBS, 46.1 µM
[23] = RPMI 5 mM glucose + 10% dialyzed FBS, 0.000781 µM
[24] = RPMI 5 mM glucose + 10% dialyzed FBS, 0.00234 µM
[25] = RPMI 5 mM glucose + 10% dialyzed FBS, 0.00702 µM
[26] = RPMI 5 mM glucose + 10% dialyzed FBS, 0.0211 µM
[27] = RPMI 5 mM glucose + 10% dialyzed FBS, 0.0632 µM
[28] = RPMI 5 mM glucose + 10% dialyzed FBS, 0.19 µM
[29] = RPMI 5 mM glucose + 10% dialyzed FBS, 0.569 µM
[30] = RPMI 5 mM glucose + 10% dialyzed FBS, 1.71 µM
[31] = RPMI 5 mM glucose + 10% dialyzed FBS, 5.12 µM
[32] = RPMI 5 mM glucose + 10% dialyzed FBS, 15.4 µM
[33] = RPMI 5 mM glucose + 10% dialyzed FBS, 46.1 µM

Structure (SMILES)	cell viability [1] [%]	cell viability [2] [%]	cell viability [3] [%]	cell viability [4] [%]	cell viability [5] [%]	cell viability [6] [%]	cell viability [7] [%]	cell viability [8] [%]	cell viability [9] [%]	cell viability [10] [%]	cell viability [11] [%]	cell viability [12] [%]	cell viability [13] [%]	cell viability [14] [%]	cell viability [15] [%]	cell viability [16] [%]	cell viability [17] [%]	cell viability [18] [%]	cell viability [19] [%]	cell viability [20] [%]	cell viability [21] [%]	cell viability [22] [%]	cell viability [23] [%]	cell viability [24] [%]	cell viability [25] [%]	cell viability [26] [%]	cell viability [27] [%]	cell viability [28] [%]	cell viability [29] [%]	cell viability [30] [%]	cell viability [31] [%]	cell viability [32] [%]	cell viability [33] [%]
C/C=C1\C2C=C(C)CC1(N)c1ccc(=O)[nH]c1C2 (stereo unspecified)	103	108	120	109	28.9	94.2	98	106	102	68.1	98.7	105	113	109	99.6	18.2	103	106	114	104	88	96.4	103	106	114	113	39.9	115	114	108	104	85.6	98.2
CCC[C@H]1C[C@H](C(=O)N[C@@H]([C@@H]2O[C@@H](SC)[C@@H](O)[C@@H](O)[C@H]2O)[C@H](C)Cl)N(C)C1	79	90.9	91.2	95.1	100	94.1	130	106	109	98.4	99.9	101	114	117	101	132	112	112	117	110	126	124	66.4	84.7	94	87.3	97.7	89.6	110	94.3	97.7	110	101
CN1C[C@H]2c3ccccc3Oc3ccc(Cl)cc3[C@@H]2C1	75.4	76	68	76.3	80.2	84	94.5	90	96.3	85	6.31	89.6	80.8	90.6	86.7	71.4	91.7	92.4	90.6	95.8	79.3	5.32	73.5	83.7	76.6	83.3	73.5	105	107	103	85.3	79.1	6.04
COc1ccc(C(C)=O)c(O)c1	93.7	98.2	110	95.1	94.2	111	108	112	114	121	112	104	121	118	124	87.8	114	121	137	120	118	121	105	92.2	118	125	108	126	102	133	132	123	117
CNC(=O)c1ccc(N2C(=S)N(c3ccc(C#N)c(C(F)(F)F)c3)C(=O)C23CCC3)cc1F	87.3	98.8	95.9	19.5	92.3	97	97.8	95.2	101	96.9	97.3	84.7	83.4	104	14.2	83	98.3	99.3	91.7	86.7	98.3	96.3	84.3	83	104	15.8	102	101	96.3	96.9	98	96.3	111
NC(=O)c1ccc(I)c([N+](=O)[O-])c1	104	127	108	126	126	130	133	124	123	117	123	106	124	131	137	137	143	145	156	120	104	111	97.6	113	124	118	123	112	116	131	115	103	99.8
N#Cc1c(NC(=O)c2cccc3ccccc23)sc2c1CCCC2	108	115	116	125	125	105	66	23.2	24.1	19.7	23	119	119	130	125	119	119	48.4	20.3	16.9	15.6	17.9	122	125	126	137	124	118	53.7	25.5	26.2	18	26.1
